From paper PMC7377239, “Cardiovascular Effects of Polychlorinated Biphenyls and Their Major Metabolites” (Environmental Health Perspectives, 2020)
Structures can show the parent of a compound that is named as a salt. Where two headings read alike, the source gives them in different places.

Key:
[1] = test system: iCell endothelial cells (human iPSC-derived ECs); test: High-content imaging cytotoxicity in iCell endothelial cells, 24 h; assay type: cell-based; conditions: Homo sapiens, Endothelial cell, iPSC-EC, 24 hr; for viability at 0.1 µM / activity at 0.1 µM: 0.10 µM; for minimal effective concentration: top concentration 100.00 µM
In short: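 Readouts were vehicle-normalised and fitted to a four-parameter logistic model. POD was set at one SD beyond 0.5% DMSO control means, and 100 µM was assigned when no response was seen. Cells were monolayers of iCell endothelial cells imaged after 24 h compound exposure using nuclear, mitochondrial and calcein dyes.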

[2] = test system: HUVECs; test: High-content imaging cytotoxicity in HUVECs, 24 h; assay type: cell-based, human; conditions: Homo sapiens, HUVEC, 24 h, HUVECs; for viability at 0.01 µM / activity at 0.01 µM / viability at 0.1 µM / activity at 0.1 µM / viability at 1 µM / activity at 1 µM / viability at 10 µM / activity at 10 µM / viability at 100 µM / activity at 100 µM: 0.00 µM = 100.00; for viability at 0.1 µM / activity at 0.1 µM: 0.10 µM; for minimal effective concentration: top concentration 100.00 µM
In short: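 Read-out: multiwavelength high-content imaging of Hoechst 33342, MitoTracker Orange and calcein AM after 24 h compound exposure of confluent HUVEC monolayers. POD values were set using a one-SD cutoff from vehicle (0.5% DMSO) means; with no concentration–response, 100μM was assigned as no observable adverse effect level.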

[3] = 0.00 µM control = 100.00, read-out: endo.cyto.24hr
[4] = 0.00 µM control = 100.00, read-out: endo.mito.24hr
[5] = 0.00 µM control = 100.00, read-out: endo.mitoint.24hr
[6] = 0.00 µM control = 100.00, read-out: endo.nma.24hr
[7] = 0.00 µM control = 100.00, read-out: endo.tc.24hrs
[8] = 24 hr, read-out: huvec.cyto.24hr
[9] = 24 hr, read-out: huvec.mito.24hr
[10] = 24 hr, read-out: huvec.mitoint.24hr
[11] = 24 hr, read-out: huvec.nma.24hr
[12] = 24 hrs, read-out: huvec.tc.24hrs

O=S(=O)(O)Oc1ccc(-c2cccc(Cl)c2)cc1Cl [4-yl PCB 11 sulfate]
viability at 0.01 µM [1, 3]: 96.1% | activity at 0.01 µM [1, 4]: 96.2% | activity at 0.01 µM [1, 5]: 99.7% | activity at 0.01 µM [1, 6]: 103% | viability at 0.01 µM [1, 7]: 96.1% | viability at 0.1 µM [1, 3]: 102% | activity at 0.1 µM [1, 4]: 101% | activity at 0.1 µM [1, 5]: 90.5% | activity at 0.1 µM [1, 6]: 102% | viability at 0.1 µM [1, 7]: 102% | viability at 1 µM [1, 3]: 98% | activity at 1 µM [1, 4]: 97.8% | activity at 1 µM [1, 5]: 90.8% | activity at 1 µM [1, 6]: 103% | viability at 1 µM [1, 7]: 98% | viability at 10 µM [1, 3]: 104% | activity at 10 µM [1, 4]: 104% | activity at 10 µM [1, 5]: 87.3% | activity at 10 µM [1, 6]: 98.8% | viability at 10 µM [1, 7]: 104% | viability at 100 µM [1, 3]: 98.5% | activity at 100 µM [1, 4]: 98.6% | activity at 100 µM [1, 5]: 84.2% | activity at 100 µM [1, 6]: 99.3% | viability at 100 µM [1, 7]: 98.5% | minimal effective concentration ([1]; read-out: endo.cyto.24hr POD): 100 µM | minimal effective concentration ([1]; read-out: endo.mito.24hr POD): 100 µM | minimal effective concentration ([1]; read-out: endo.mitoint.24hr POD): 100 µM | minimal effective concentration ([1]; read-out: endo.nma.24hr POD): 100 µM | minimal effective concentration ([1]; read-out: endo.tc.24hrs POD): 100 µM | viability at 0.01 µM [2, 8]: 97.3% | activity at 0.01 µM [2, 9]: 95.5% | activity at 0.01 µM [2, 10]: 95.8% | activity at 0.01 µM [2, 11]: 97.3% | viability at 0.1 µM [2, 8]: 86.8% | activity at 0.1 µM [2, 9]: 85.9% | activity at 0.1 µM [2, 10]: 118% | activity at 0.1 µM [2, 11]: 104% | viability at 1 µM [2, 8]: 97.8% | activity at 1 µM [2, 9]: 96.6% | activity at 1 µM [2, 10]: 99.3% | activity at 1 µM [2, 11]: 97% | viability at 10 µM [2, 8]: 108% | activity at 10 µM [2, 9]: 107% | activity at 10 µM [2, 10]: 93.5% | activity at 10 µM [2, 11]: 93.9% | viability at 100 µM [2, 8]: 58.3% | activity at 100 µM [2, 9]: 58.9% | activity at 100 µM [2, 10]: 54.2% | activity at 100 µM [2, 11]: 75.6% | minimal effective concentration ([2]; 24 hr, read-out: huvec.cyto.24hr POD): 48.8 µM | minimal effective concentration ([2]; 24 hr, read-out: huvec.mito.24hr POD): 45.1 µM | minimal effective concentration ([2]; 24 hr, read-out: huvec.mitoint.24hr POD): 10.8 µM | minimal effective concentration ([2]; 24 hr, read-out: huvec.nma.24hr POD): 2.98 µM | viability at 0.01 µM [2, 12]: 97.3% | viability at 0.1 µM [2, 12]: 86.8% | viability at 1 µM [2, 12]: 97.8% | viability at 10 µM [2, 12]: 108% | viability at 100 µM [2, 12]: 59.1% | minimal effective concentration ([2]; 24 hrs, read-out: huvec.tc.24hrs POD): 48.8 µM
